In PMC3379896 (ACS medicinal chemistry letters, 2012):

Legend:
MMP-14 = MMP-14 (Homo sapiens, UniProt P50281); assay: Kinetic inhibition of MMP-14; conditions: slow-binding
MMP-1 = target: T1, MMP-1 (Homo sapiens, UniProt P03956); assay: Kinetic inhibition of MMP-1; type: biochemical; conditions: read-out: MMP-1 inhibition at fixed concentration
T1 sequence (P03956 100-469): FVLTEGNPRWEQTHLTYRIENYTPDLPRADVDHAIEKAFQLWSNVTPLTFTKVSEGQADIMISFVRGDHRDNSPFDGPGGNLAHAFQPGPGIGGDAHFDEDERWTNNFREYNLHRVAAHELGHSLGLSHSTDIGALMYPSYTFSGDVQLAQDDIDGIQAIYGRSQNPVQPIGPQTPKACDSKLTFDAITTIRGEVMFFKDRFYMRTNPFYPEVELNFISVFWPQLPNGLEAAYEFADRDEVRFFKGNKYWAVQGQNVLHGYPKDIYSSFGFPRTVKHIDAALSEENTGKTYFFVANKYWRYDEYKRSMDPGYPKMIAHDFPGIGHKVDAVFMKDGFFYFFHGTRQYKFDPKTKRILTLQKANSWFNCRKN

MMP-7 = target: T2, MMP-7 (Homo sapiens, UniProt P09237); assay: Kinetic inhibition of MMP-7; type: biochemical; conditions: read-out: MMP-7 inhibition at fixed concentration
T2 sequence (P09237 95-267): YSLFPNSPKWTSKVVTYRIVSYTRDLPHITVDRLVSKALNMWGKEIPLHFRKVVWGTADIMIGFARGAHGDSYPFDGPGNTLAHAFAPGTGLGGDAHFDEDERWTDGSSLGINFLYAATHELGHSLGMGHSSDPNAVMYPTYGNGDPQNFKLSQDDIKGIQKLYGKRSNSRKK

Compound: CC(C)Oc1ccc(Oc2ccc(S(=O)(=O)CC3CS3)cc2)cc1 (stereo not drawn) [Compound 32]
- MMP-14 inhibition, in words (MMP-14): include MMP-14 in their spectrum of inhibition

Compound: COCOc1ccc(Oc2ccc(S(=O)(=O)CC3CS3)cc2)cc1 (stereo not drawn) [Compound 33a]
- MMP-14 inhibition, in words (MMP-14): include MMP-14 in their spectrum of inhibition

Compound: O=S(=O)(CC1CS1)c1ccc(Oc2ccc(CO)cc2)cc1 (stereo not drawn) [Compound 26]
- MMP-14 inhibition, in words (MMP-14): include MMP-14 in their spectrum of inhibition

Compound: O=S(=O)(CC1CS1)c1ccc(Oc2ccc(F)cc2)cc1 (stereo not drawn) [Compound 19a]
- inhibition at 20 µM (MMP-1): 0 to 3%
- MMP-14 inhibition, in words (MMP-14): include MMP-14 in their spectrum of inhibition

Compound: O=S(=O)(CC1CS1)c1ccc(Oc2ccc(OC(F)(F)F)cc2)cc1 (stereo not drawn) [Compound 38a]
- inhibition at 20 µM (MMP-7): 0 to 3%
- MMP-14 inhibition, in words (MMP-14): include MMP-14 in their spectrum of inhibition

Compound: O=S(=O)(CC1CS1)c1ccc(Oc2ccc(I)cc2)cc1 (stereo not drawn) [Compound 22a]
- inhibition at 60 µM (MMP-1): 0 to 3%
- inhibition at 10 µM (MMP-7): 0 to 3%
- MMP-14 inhibition, in words (MMP-14): include MMP-14 in their spectrum of inhibition

Compound: O=S(=O)(CC1CS1)c1ccc(Oc2cccc(F)c2)cc1 (stereo not drawn) [Compound 19b]
- inhibition at 125 µM (MMP-7): 0 to 3%
- MMP-14 inhibition, in words (MMP-14): include MMP-14 in their spectrum of inhibition
